Biological target: Hma (MmaA4) (Mycobacterium tuberculosis, UniProt Q79FX8)
Sequence (Q79FX8 4-301): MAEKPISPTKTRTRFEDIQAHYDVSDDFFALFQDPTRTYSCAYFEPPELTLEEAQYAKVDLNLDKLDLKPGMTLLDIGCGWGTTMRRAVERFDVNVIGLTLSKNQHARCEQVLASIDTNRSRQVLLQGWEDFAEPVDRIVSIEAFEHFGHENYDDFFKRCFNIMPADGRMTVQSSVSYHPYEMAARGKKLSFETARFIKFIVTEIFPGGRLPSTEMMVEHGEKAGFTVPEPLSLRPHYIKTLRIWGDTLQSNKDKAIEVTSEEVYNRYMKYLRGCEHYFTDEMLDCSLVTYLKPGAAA

O=Cc1ccc2cccc(O)c2n1 [ZT726]
X-ray crystallography, fragment soak, PanDDA: A second molecule of the ZT260 and ZT320 fragments is located at this position, as well as ZT726

Source: paper PMC8708032, “Fragment-Based Ligand Discovery Applied to the Mycolic Acid Methyltransferase Hma (MmaA4) from Mycobacterium tuberculosis: A Crystallographic and Molecular Modelling Study” (Pharmaceuticals, 2021)
